According to patent US9556169B2, “Compounds and compositions for the treatment of parasitic diseases” (NOVARTIS AG, priority 2012, dated 2017):
Where two headings read alike, the source gives them in different places.

Key:
[1] = tested on: Plasmodium berghei line expressing luciferase (Pb-luc) sporozoites; test: Liver stage P. berghei luciferase proliferation assay in CD81-GFP-HepG2 cells; type: cell-based; conditions: values marked * in Table 2, CD81-GFP-HepG2 cells, 48 h, luminescence, read-out: EC50 (nM), P. berghei luciferase Proliferation Assay
Protocol: Liver Stage P. berghei Luciferase Proliferation Assay
CD81-GFP-HepG2 cells (obtained from the lab of Dominique Mazier) were seeded into GNF custom Greiner plates (1536-well, white, TC-treated, solid bottom). A final density of 3000 cells/well was achieved by dispensing 5 ul per well of a 600,000 cells/mL resuspended in Assay Media (AM; phenol-red free DMEM, 2% FBS, 5×PSG) via a MicroFlo (Biotek; 5 ul dispense cassette). The seeded assay plates were incubated overnight at 37° C. in an incubator with 5% CO2. The following day, a 10 nL volume of compound was transferred acoustically (ECHO 525, Labcyte Inc.) to each well in the assay plate. Sporozoite forms of a Plasmodium berghei line expressing luciferase (Pb-luc) were dissected and purified from infected Anopheles stephensi mosquitoes (provided by the NYU insectary) as previously described by Meister et al. (Science, 2011). Purified sporozoites (spz) were stored at 250 spz/uL in chilled PBS supplemented with 3% BSA. 3 uL of Pb-luc spz solution was dispensed to each assay well using a Bottlevalve equipped with a custom, single-tip dispense head (GNF Systems). Assay plates were centrifuged at 330×g for 3 minutes to pellet the spz, then the assay plates were returned to the 37° C. incubator for 48 h. Luciferase signal, which corresponds with parasite proliferation, was detected by adding 2 uL of BrightGlo (Promega) to each well using the MicroFlo (Biotek; 1 ul cassette). Luminescence was immediately measured on an Envision MultiLabel Plate Reader (PerkinElmer).

[2] = tested on: P. falciparum (NF54 or 3D7 strain); test: P. falciparum proliferation assay in infected human blood cells (SYBR Green); type: cell-based; conditions: Plasmodium falciparum, Erythrocyte, read-out: EC50 (nM), inhibitory efficacy in delaying P. falciparum proliferation in infected human blood cells
Protocol: Assay for P. falciparum Proliferation in Infected Human Blood Cells
Compounds of the invention can be assayed to measure their capacity to inhibit proliferation of P. falciparum parasitemia in infected red blood cells. This parasite proliferation assay measures the increase in parasite DNA content using a DNA intercalating dye, SYBR Green® (INVITROGEN®) which has a high affinity for double stranded DNA.
NF54 or 3D7 P. falciparum strain is grown in complete culturing media until parasitemia reaches 3% to 8% with O+ human erythrocytes. […] 20 μl of screening media is dispensed into 384 well assay plates. 50 nl of compounds of the invention (in DMSO), including antimalarial controls (mefloquine, pyrimethamine and artemisinin), are then transferred into the assay plates, as well as DMSO alone to serve as a negative control for inhibition. Then 30 μl of a suspension of a NF54 or 3D7 P. falciparum infected erythrocytes in screening media is dispensed into the assay plates such that the final hematocrit is 2.5% with a final parasitemia of 0.3%. The plates are placed in a 37° C. incubator for 72 hours in a low oxygen environment containing 93% N2, 4% CO2, and 3% O2 gas mixture. 10 μl of lysis buffer (saponin, triton-X, EDTA) containing a 10× solution of SYBR Green I® in RPMI media is dispensed into the plates. The plates are lidded and kept at room temperature overnight for the lysis of the infected red blood cells. The fluorescence intensity is measured (excitation 425 nm, emission 530 nm) using the Envision™ system (Perkin Elmer). The percentage inhibition of 50%, EC50, is calculated for each compound.

[3] = infected human erythrocytes, 72 hours, SYBR Green fluorescence

SMILES | EC50 [1] [nM] | EC50 [2, 3] [nM] | EC50 ([2]; 72 h) [nM]
CNC(=O)c1ccc(-c2cnn3ccc(C(=O)N(c4ccc(C#N)cn4)C4CC4)cc23)nc1 [Example 133, N-(5-Cyanopyridin-2-yl)-N-cyclopropyl-3-(5-(methylcarbamoyl)pyridin-2-yl)pyrazolo[1,5-a]pyridine-5-carboxamide] | 34 | 58 | 
CNC(=O)c1ccc(-c2cnn3ccc(C(=O)N(c4ccc(F)cn4)C(C)C)cc23)cn1 [Example 156, N-(5-fluoropyridin-2-yl)-N-isopropyl-3-(6-(methylcarbamoyl)pyridin-3-yl)pyrazolo[1,5-a]pyridine-5-carboxamide] | 54 | 210 | 
CCN(C(=O)c1ccn2ncc(-c3ccc(C(=O)NC)nc3)c2c1)c1ccc(F)cn1 [Example 159, N-ethyl-N-(5-fluoropyridin-2-yl)-3-(6-(methylcarbamoyl)pyridin-3-yl)pyrazolo[1,5-a]pyridine-5-carboxamide] | 43 | 56 | 
CNC(=O)c1ccc(-c2cnn3ccc(C(=O)N(c4ccc(C#N)cn4)C4CCC4)cc23)nc1 [Example 155, N-(5-Cyanopyridin-2-yl)-N-cyclobutyl-3-(5-(methylcarbamoyl)pyridin-2-yl)pyrazolo[1,5-a]pyridine-5-carboxamide] | 21 |  | 82
CNC(=O)c1ccc(-c2cnn3ccc(C(=O)N(c4ccc(C(F)(F)F)cn4)C(C)C)cc23)cn1 [Example 152, N-Isopropyl-3-(6-(methylcarbamoyl)pyridin-3-yl)-N-(5-(trifluoromethyl)pyridin-2-yl)pyrazolo[1,5-a]pyridine-5-carboxamide] | 182 | 228 | 
CNC(=O)c1ccc(-c2cnn3ccc(C(=O)N(c4ccc(C(F)(F)F)cn4)C4CCC4)cc23)cc1 [Example 160, N-cyclobutyl-3-(4-(methylcarbamoyl)phenyl)-N-(5-(trifluoromethyl)pyridin-2-yl)pyrazolo[1,5-a]pyridine-5-carboxamide] | 4 | 4 | 
CNC(=O)c1ccc(-c2cnn3ccc(C(=O)N(c4ccc(C#N)cc4)C4CCC4)cc23)cn1 [Example 145, N-(4-Cyanophenyl)-N-cyclobutyl-3-(6-(methylcarbamoyl)pyridin-3-yl)pyrazolo[1,5-a]pyridine-5-carboxamide] | 8 | 12 | 
CNC(=O)c1ccc(-c2cnn3ccc(C(=O)N(c4ccc(C#N)c(OC)n4)C4CC4)cc23)cc1 [Example 149, N-(5-Cyano-6-methoxypyridin-2-yl)-N-cyclopropyl-3-(4-(methylcarbamoyl)phenyl)pyrazolo[1,5-a]pyridine-5-carboxamide] | 1 | 4 | 
CCN(C(=O)c1ccn2ncc(-c3ccc(S(C)(=O)=O)cc3)c2c1)c1ccc(C#N)cn1 [Example 158, N-(5-cyanopyridin-2-yl)-N-ethyl-3-(4-(methylsulfonyl)phenyl)pyrazolo[1,5-a]pyridine-5-carboxamide] | 11 | 111 | 
CNC(=O)c1ccc(-c2cnn3ccc(C(=O)N(c4ccc(C)cn4)C4CC4)cc23)cc1 [Example 136, N-Cyclopropyl-3-(4-(methylcarbamoyl)phenyl)-N-(5-methylpyridin-2-yl)pyrazolo[1,5-a]pyridine-5-carboxamide] | 10 |  | 
CNC(=O)c1ccc(-c2cnn3ccc(C(=O)N(c4ccc(F)cn4)C(C)C)cc23)cc1 [Example 151, N-(5-fluoropyridin-2-yl)-N-isopropyl-3-(4-(methylcarbamoyl)phenyl)pyrazolo[1,5-a]pyridine-5-carboxamide] | 7 | 67 | 
CCN(C(=O)c1ccn2ncc(-c3ccc(C(=O)NC)nc3)c2c1)c1ccc(C#N)cn1 [Example 150, N-(5-cyanopyridin-2-yl)-N-ethyl-3-(6-[methylcarbamoyl]pyridin-3-yl)pyrazolo[1,5-a]pyridine-5-carboxamide] | 19 | 51 | 
